Experimental data from patent US20050169863A1, “2-Thioacetamide compositions for stimulating the growth of keratin fibers and/or for reducing loss thereof” (L'OREAL, priority 2003, published 2005).

Key:
PGF synthase (PGFS) = biological target: T1, PGF synthase (PGFS) (Homo sapiens, UniProt P42330); assay: Test on PGF synthase (spectrophotometric, 340 nm, 9,10-phenanthrenequinone/β-NADPH); format: biochemical; details: IC50fs; 37° C., pH 6.5 Tris buffer, 20 μM 9,10-phenanthrenequinone, 100 μM β-NADPH
T1 construct: made in house
T1 sequence (P42330 1-323): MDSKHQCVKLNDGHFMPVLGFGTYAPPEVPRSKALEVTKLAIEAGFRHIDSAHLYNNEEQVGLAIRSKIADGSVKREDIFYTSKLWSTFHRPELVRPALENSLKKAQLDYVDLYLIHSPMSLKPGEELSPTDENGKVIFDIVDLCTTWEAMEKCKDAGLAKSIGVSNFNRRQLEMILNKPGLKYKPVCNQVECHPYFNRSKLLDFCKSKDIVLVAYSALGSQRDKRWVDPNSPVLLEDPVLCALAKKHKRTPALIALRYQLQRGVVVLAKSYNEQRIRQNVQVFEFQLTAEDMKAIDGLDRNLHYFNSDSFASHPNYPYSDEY
Experimental: The enzyme PGFS is obtained as described in document FR-A-02/05067, at a concentration of 0.5 mg/mL, as a suspension in a suitable medium, and blocked at −80° C. For the purposes of the test, this suspension is thawed and stored in ice.
In parallel, a 100 mM, pH 6.5 Tris buffer containing 20 μM of 9,10-phenanthrenequinone* (P2896, Sigma-Aldrich, L'isle D'Abeau Chesne, BP 701, 38297, Saint Quentin Fallavier) and 100 μM of β-NADPH (N1630, Sigma-Aldrich, L'isle D'Abeau Chesne, BP 701, 38297, Saint Quentin Fallavier) is prepared in a brown flask (protected from light).
*A stock solution with a titre of 1 mM is prepared in absolute ethanol and brought to 40° C.; the flask is placed in an ultrasound cuvette to facilitate the dissolution of the product.
0.950 mL of this buffer (brought to 37° C. beforehand) is introduced into the cuvette of a spectrophotometer (Perkin-Elmer, Lambda 2) thermostatically maintained at 37° C., the measuring wavelength of which is set at 340 nm. 0.05 mL of enzymatic suspension at 37° C. is introduced into the cuvette concomitantly with the recording (corresponding to a reduction in the optical density at 340 nm). The maximum reaction rate is recorded. […]

15-PGDH = biological target: T2, 15-PGDH (Homo sapiens, UniProt P15428); assay: Test on 15-PGDH (spectrophotometric, 340 nm, PGE2/β-NAD); format: biochemical; details: for Inhibition of 15-PGDH % inhibition at 50 μm: compound at 50 μm, pH 7.4
T2 construct: made in house
T2 sequence (P15428 1-266): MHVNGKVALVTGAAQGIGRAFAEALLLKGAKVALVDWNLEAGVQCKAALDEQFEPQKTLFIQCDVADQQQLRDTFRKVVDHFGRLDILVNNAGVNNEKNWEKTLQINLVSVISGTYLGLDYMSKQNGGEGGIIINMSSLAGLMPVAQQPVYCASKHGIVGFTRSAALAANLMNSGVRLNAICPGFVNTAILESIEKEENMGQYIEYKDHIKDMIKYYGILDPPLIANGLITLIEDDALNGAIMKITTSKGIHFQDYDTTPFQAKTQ
Experimental: The enzyme 15-PGDH is obtained as described in patent application FR 02/05067 filed in the name of L'Oréal, as a suspension in a medium adjusted to a concentration of 0.3 mg/mL and then blocked at −80° C. For the purposes of the test, this suspension is thawed and stored in ice.
In parallel, a 100 mM, pH 7.4 Tris buffer containing 0.1 mM of dithiothreitol (D5545, Sigma-Aldrich, L'isle D'Abeau Chesne, BP 701, 38297, Saint Quentin Fallavier), 1.5 mM of β-NAD (N6522, Sigma-Aldrich, L'isle D'Abeau Chesne, BP 701, 38297, Saint Quentin Fallavier), and 50 μM of prostaglandin E2 (P4172, Sigma-Aldrich, L'isle D'Abeau Chesne, BP 701, 38297, Saint Quentin Fallavier) is prepared.
0.965 ml of this buffer (brought to 37° C. beforehand) is introduced into the cuvette of a spectrophotometer (Perkin-Elmer, Lambda 2) thermostatically maintained at 37° C., the measuring wavelength of which is set at 340 nm. 0.035 mL of enzymatic suspension at 37° C. is introduced into the cuvette concomitantly with the recording (corresponding to an increase in the optical density at 340 nm). The maximum reaction rate is recorded.
The test values (containing the compounds (I)) are compared with the control value (without compound (I)); the results indicated represent the concentration at which the compound of formula (I) reduces the anzymatic activity of 15-PGDH by 50%, namely IC50dh.

Row | SMILES | IC50 (PGF synthase (PGFS)) [µM] | IC50 (15-PGDH; IC50dh, 37° C., pH 7.4 Tris buffer, 50 μM prostaglandin E2, 1.5 mM β-NAD, read-out: Inhibition of 15-PGDH IC50) [µM] | Inhibition of 15-PGDH % inhibition at 50 μm (15-PGDH; 37° C.) [%] | IC50fs/IC50dh ratio (15-PGDH; selectivity: PGF synthase IC50 over 15-PGDH IC50)
1 | O=C(CSc1nc2ccccc2s1)NC1CCCC1 [Compound 1] | ≥ 50 | 5 | 89 | greater than 10
2 | CC(=O)c1ccc(C#N)c(SCC(=O)Nc2cc(Cl)cc(Cl)c2)n1 [Compound 2] | – | – | 30 | –
3 | O=C(CSc1nnc2sc3ccccc3n12)Nc1ccc(Br)cc1 [Compound 3] | – | – | 26 | –
